Common to all, as to format: in vivo
The test system of assay [1] is myeloperoxidase (MPO) activity. The experiment in a line: Myeloperoxidase assay on rat paw tissue. The note with it: for MPO activity (unit mg^-1): 2f-induced rat paw oedema, paw tissue, individual animals (Figure 5i); for Myeloperoxidase (MPO) activity increased by 2f-LIGRLO-NH2: pre-treatment, 30 min. The procedure: Rat paw tissues were collected, snap-frozen with liquid N2, and stored at −80 °C. Samples were cut with a scalpel, weighed, and added to MPO buffer (50 mM potassium phosphate buffer, pH 6.0) to a concentration of 200 mg ml^−^1, before homogenising using zirconium oxide beads (1 and 2 mm, Next Advance, USA) and a Bullet Blender® homogeniser (Next Advance, USA). Homogenised tissues were diluted to 100 mg ml^−1 with MPO buffer containing 1% hexadecyl trimethylammonium bromide (Sigma-Aldrich, USA). Samples were then sonicated for 5 min, centrifuged at 13,000 × g for 10 min at 4 °C, and the clear supernatant for each sample was collected.

Another assay concerns mast cells. The experiment in a line: Immunohistochemistry, histamine release in rat paw. The following applies: pre-treatment; 30 min. Here is the method:
Rat paw tissues were collected, fixed in 10% neutral-buffered formalin (Sigma-Aldrich) for 2 h at 4 °C, transferred into falcon tubes containing 25% sucrose in PBS and left overnight at 4 °C. Tissues were then embedded with Optimal Cutting Temperature compound (OCT, Sakura Finetek, USA) and stored at −80 °C before making cryo-sections for histological analysis. Frozen sections (5 µm) were made using a cryostat-microtome (Leica Biosystems, Germany). For mast cell staining, slides were briefly washed with distilled water before staining with 0.1% toluidine blue (Sigma-Aldrich, pH 2.5) for 3 min. Slides were then dehydrated and mounted in DPX mountant (Sigma-Aldrich, USA). For immunohistochemistry, slides were briefly rinsed with PBS to remove OCT. Except for tryptase staining, antigen retrieval was performed by incubating slides in citrate buffer (0.01 M, pH 6) at 95 °C for 20 min. They were then cooled down briefly and incubated with blocking medium (PBS, 0.1% Triton X-100, 10% horse serum) for 1 h at room temperature in a humidity chamber. Samples were incubated with primary antibody medium (PBS, 0.1% Triton X-100, 4% horse serum; 1:100 primary antibody including – histamine, neutrophil elastase or ED1 antibodies) overnight at 4 °C. […] Tryptase-, neutrophil elastase- and ED1-positive cells were quantified using FIJI/ImageJ 1.42q software, USA.

A further assay deals with T1, PAR2 (Rattus norvegicus, UniProt Q63645).
T1 construct: from tissue; host or cells: hind paw of male Wistar rats, in vivo
T1 sequence (Q63645 26-397): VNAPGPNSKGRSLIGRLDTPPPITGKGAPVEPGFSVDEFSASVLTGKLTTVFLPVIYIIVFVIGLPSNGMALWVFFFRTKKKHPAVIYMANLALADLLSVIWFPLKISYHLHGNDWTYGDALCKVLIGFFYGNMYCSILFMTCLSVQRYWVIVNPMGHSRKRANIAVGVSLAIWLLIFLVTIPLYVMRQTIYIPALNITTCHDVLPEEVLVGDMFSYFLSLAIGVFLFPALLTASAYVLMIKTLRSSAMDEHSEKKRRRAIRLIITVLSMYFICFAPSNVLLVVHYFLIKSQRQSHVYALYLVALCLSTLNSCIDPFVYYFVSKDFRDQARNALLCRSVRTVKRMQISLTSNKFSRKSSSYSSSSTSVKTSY
In words: PAR2 agonist (2f-LIGRLO-NH2)-induced rat paw oedema, paw swelling. The note with it: for reduction of paw swelling: Wistar rats; for % swelling: 2f-induced rat paw oedema, individual animals (Figure 5a); for paw swelling: AZ3451 10 mg kg^−1 s.c. 30 min before, AZ8838 10 mg kg^−1 p.o. 2 h before 2f-LIGRLO-NH2; for anti-inflammatory activity in vivo after oral delivery / anti-inflammatory activity in vivo after subcutaneous injection: rat paw oedema. Here is the method:
Following Australian ethical standards, animals were air transported to the Institute for Bioengineering and Nanotechnology (University of Queensland, Australia). Animals were housed at room temperature and kept in 12 h light/dark cycles, with standard chow and water provided ad libitum, for at least a 48 h acclimatisation period before experiments. […] Saline only was given to sham paws. […] Control animals received either DMSO s.c. or 20% DMSO/80% olive oil via oral gavage. […] At the 30 min time point, a portion of animals was euthanised by CO2 inhalation and their paws collected for further analyses. All in vivo experimental procedures and animal handling were conducted with approval from the Animal Ethics Committee at the University of Queensland which follows NHMRC and ARRIVE guidelines. After experimentation, animals are humanely euthanized by CO2 inhalation as stipulated by the ethical agreements.
Experimental results were expressed as mean ± s.e.m. Graphs were plotted and data analysed using GraphPad Prism7. Statistical differences were assessed using Student’s t-tests (two-tailed) for data sets of two, one-way ANOVA for data sets of three or more with Bonferroni post-hoc tests, or two-way repeated-measures ANOVA with Tukey post-hoc tests for temporal data sets, as appropriate. Significance was set at ^+p < 0.05, ^++p < 0.01, ^+++p < 0.001, ^++++p < 0.0001 compared to sham, and *p < 0.05, **p < 0.01, ***p < 0.001, ****p < 0.0001 compared to disease control.

Several values for one entry are separate records, joined by “and”; a condition that tells them apart may be missing. Equal values may be shown once.

For the compound `C[C@@H](C1CCCCC1)n1c(-c2cc3c(cc2Br)OCO3)nc2cc(C(=O)Nc3ccc(C#N)cc3)ccc21` [AZ3451], the “MPO activity (unit mg^-1)” value in assay [1] is 0.2692 unit mg^-1 and 0.2802 unit mg^-1 and 0.295 unit mg^-1 and 0.3577 unit mg^-1. In addition, the “Myeloperoxidase (MPO) activity increased by 2f-LIGRLO-NH2” value in assay [1] is “reduced almost to baseline”. Also, the histamine release entry in the assay with mast cells is listed as “blocked”. Further, the “reduction of paw swelling” value on PAR2 (10 mg kg^−1 s.c. 30 min prior to 2f-LIGRLO-NH2 350 µg per paw) came out at 60%. Moreover, the “% swelling” value on PAR2 (Time 0 h) is 0%; on PAR2 (Time 0.5 h) it was 48.3188% and 41.0115% and 38.4554% and 0.2044%; on PAR2 (Time 1 h), 31.4446% and 1.303% and 21.2807% and 5.312%; at PAR2 (Time 2 h), 1.7017% and 2.985% and 4.564% and -2.962%; at PAR2 (Time 4 h), 3.1932% and 1.708% and -5.029% and 2.557%. Besides, on PAR2, the paw swelling result is given as “significantly reduced paw swelling”. At PAR2, the “anti-inflammatory activity in vivo after oral delivery” value was “not after oral delivery”. The “anti-inflammatory activity in vivo after subcutaneous injection” value on PAR2 is given as “active in vivo”.
As to `CCCc1cc(F)ccc1C(O)c1ncc[nH]1` (stereo not drawn) [AZ8838], the “MPO activity (unit mg^-1)” value in assay [1] is 0.2682 unit mg^-1 and 0.2003 unit mg^-1 and 0.454 unit mg^-1 and 0.2121 unit mg^-1 and 0.4127 unit mg^-1. The “Myeloperoxidase (MPO) activity increased by 2f-LIGRLO-NH2” value in assay [1] was “reduced almost to baseline”. Besides, the histamine release entry in the assay with mast cells is listed as “blocked”. The “reduction of paw swelling” value at PAR2 (10 mg kg^−1 p.o. 2 h prior to 2f-LIGRLO-NH2 350 µg per paw) stood at 60%. Also, the “% swelling” value on PAR2 (Time 0 h) was 0%; on PAR2 (Time 0.5 h), 24.8579% and 43.6327% and 41.4698% and 6.42%; on PAR2 (Time 1 h), 17.7725% and 33.5029% and 21.2259% and 5.253%; on PAR2 (Time 2 h), -0.8821% and 11.1837% and 14.1177% and -4.556%; on PAR2 (Time 4 h), -4.225% and 3.626% and 12.7121% and -4.201%. Moreover, the paw swelling entry at PAR2 is given as “significantly reduced paw swelling”. In addition, the “anti-inflammatory activity in vivo after oral delivery” value at PAR2 is given as “anti-inflammatory in vivo”. Besides, on PAR2, the “anti-inflammatory activity in vivo after subcutaneous injection” value is listed as “anti-inflammatory in vivo”.
